Tested on: Human patients with short bowel syndrome
Experiment: Example 2: liver biomarkers (albumin, gamma glutamyl transferase, total bilirubin, ALT, AST, ALP) in short bowel syndrome patients, every four weeks for 24 weeks
Format: in vivo
Conditions: 0.05 mg/kg/d; for Gamma Glutamyl Transferase Observed Value, Mean / Gamma Glutamyl Transferase Observed Value, Median / ALKALINE PHOSPHATASE Change from Baseline, Median / ALT Change from Baseline, Mean / ALT Change from Baseline, Median / ALT Observed Value, Mean / ALT Observed Value, Median / AST Change from Baseline, Mean / AST Change from Baseline, Median / AST Observed Value, Mean / AST Observed Value, Median / Albumin Change from Baseline, Mean / Albumin Change from Baseline, Median / Albumin Observed Value, Mean / Albumin Observed Value, Median / Alkaline Phosphatase Change from Baseline, Mean / Alkaline Phosphatase Observed Value, Mean / Alkaline Phosphatase Observed Value, Median / Bilirubin Change from Baseline, Mean / Bilirubin Change from Baseline, Median / Bilirubin Observed Value, Mean / Bilirubin Observed Value, Median / Gamma Glutamyl Transferase Change from Baseline, Mean / Gamma Glutamyl Transferase Change from Baseline, Median: n=38; for ALT >10% decrease from Baseline, % of subjects / ALT >10% decrease from Baseline, n subjects / ALT >10% increase from Baseline, % of subjects / ALT >10% increase from Baseline, n subjects / ALT Within 10% of Baseline, % of subjects / ALT Within 10% of Baseline, n subjects / AST >10% decrease from Baseline, % of subjects / AST >10% decrease from Baseline, n subjects / AST >10% increase from Baseline, % of subjects / AST >10% increase from Baseline, n subjects / AST Within 10% of Baseline, % of subjects / AST Within 10% of Baseline, n subjects / Albumin >10% decrease from Baseline, % of subjects / Albumin >10% decrease from Baseline, n subjects / Albumin >10% increase from Baseline, n subjects / Albumin Within 10% of Baseline, % of subjects / Albumin Within 10% of Baseline, n subjects / Alkaline Phosphatase >10% decrease from Baseline, % of subjects / Alkaline Phosphatase >10% decrease from Baseline, n subjects / Alkaline Phosphatase >10% increase from Baseline, % of subjects / Alkaline Phosphatase >10% increase from Baseline, n subjects / Alkaline Phosphatase Within 10% of Baseline, % of subjects / Alkaline Phosphatase Within 10% of Baseline, n subjects / Bilirubin >10% decrease from Baseline, % of subjects / Bilirubin >10% decrease from Baseline, n subjects / Bilirubin >10% increase from Baseline, % of subjects / Bilirubin >10% increase from Baseline, n subjects / Bilirubin Within 10% of Baseline, % of subjects / Bilirubin Within 10% of Baseline, n subjects: m=38
Method: To further confirm the results of Example 1, a further study was conducted involving more individuals and additional diagnostic biomarkers. Human patients with short bowel syndrome were divided into two groups: a control group (43 total individuals) to receive placebo, and an experimental group (42 total individuals) to receive teduglutide at 0.05 mg/kg/day throughout the study. Patients were treated by subcutaneous injection of placebo or the appropriate dose of teduglutide. Known biomarkers of liver function were monitored every four weeks, for 24 weeks. The liver biomarkers tested included albumin, gamma glutamyl transferase, total bilirubin, ALT and AST and ALP. Before administration of placebo or teduglutide, diagnostic biomarker levels were tested to establish a baseline for each individual.
To determine the effect of GLP-2 on the levels of the diagnostic biomarkers, the average level of each biomarker was measured for the placebo and teduglutide treated groups for each visit. Furthermore, the average change from baseline was calculated using the established baseline values. For FIGS. 17-28, p-values were calculated using the t-test.
P values are provided, which were calculated for each distribution of biomarker changes for each week using the chi-squared test.

Structure (SMILES): CC[C@H](C)[C@H](NC(=O)[C@H](Cc1ccccc1)NC(=O)[C@H](CC(=O)O)NC(=O)[C@H](CCCNC(=N)N)NC(=O)[C@H](C)NC(=O)[C@H](C)NC(=O)[C@H](CC(C)C)NC(=O)[C@H](CC(N)=O)NC(=O)[C@H](CC(=O)O)NC(=O)[C@H](CC(C)C)NC(=O)[C@@H](NC(=O)[C@@H](NC(=O)[C@H](CC(N)=O)NC(=O)[C@H](CCSC)NC(=O)[C@H](CCC(=O)O)NC(=O)[C@H](CC(=O)O)NC(=O)[C@H](CO)NC(=O)[C@H](Cc1ccccc1)NC(=O)[C@H](CO)NC(=O)CNC(=O)[C@H](CC(=O)O)NC(=O)CNC(=O)[C@@H](N)Cc1c[nH]cn1)[C@@H](C)O)[C@@H](C)CC)C(=O)N[C@@H](CC(N)=O)C(=O)N[C@@H](Cc1c[nH]c2ccccc12)C(=O)N[C@@H](CC(C)C)C(=O)N[C@H](C(=O)N[C@@H](CCC(N)=O)C(=O)N[C@H](C(=O)N[C@@H](CCCCN)C(=O)N[C@H](C(=O)N[C@H](C(=O)N[C@@H](CC(=O)O)C(=O)O)[C@@H](C)O)[C@@H](C)CC)[C@@H](C)O)[C@@H](C)CC [teduglutide]
- Gamma Glutamyl Transferase Observed Value, Mean (Week 16): 72.4 U/L
- Gamma Glutamyl Transferase Observed Value, Median (Week 16): 54 U/L
- ALT >10% decrease from Baseline, % of subjects (Week 20): (60.5%)
- ALT >10% decrease from Baseline, n subjects (Week 20): 23
- ALT >10% increase from Baseline, % of subjects (Week 20): (13.2%)
- ALT >10% increase from Baseline, n subjects (Week 20): 5
- ALT Within 10% of Baseline, % of subjects (Week 20): (26.3%)
- ALT Within 10% of Baseline, n subjects (Week 20): 10
- AST >10% decrease from Baseline, % of subjects (Week 20): (52.6%)
- AST >10% decrease from Baseline, n subjects (Week 20): 20
- AST >10% increase from Baseline, % of subjects (Week 20): (18.4%)
- AST >10% increase from Baseline, n subjects (Week 20): 7
- AST Within 10% of Baseline, % of subjects (Week 20): (28.9%)
- AST Within 10% of Baseline, n subjects (Week 20): 11
- Albumin >10% decrease from Baseline, % of subjects (Week 20): (2.6%)
- Albumin >10% decrease from Baseline, n subjects (Week 20): 1
- Albumin >10% increase from Baseline, n subjects (Week 20): 0
- Albumin Within 10% of Baseline, % of subjects (Week 20): (97.4%)
- Albumin Within 10% of Baseline, n subjects (Week 20): 37
- Alkaline Phosphatase >10% decrease from Baseline, % of subjects (Week 20): (60.5%)
- Alkaline Phosphatase >10% decrease from Baseline, n subjects (Week 20): 23
- Alkaline Phosphatase >10% increase from Baseline, % of subjects (Week 20): (7.9%)
- Alkaline Phosphatase >10% increase from Baseline, n subjects (Week 20): 3
- Alkaline Phosphatase Within 10% of Baseline, % of subjects (Week 20): (31.6%)
- Alkaline Phosphatase Within 10% of Baseline, n subjects (Week 20): 12
- Bilirubin >10% decrease from Baseline, % of subjects (Week 20): (65.8%)
- Bilirubin >10% decrease from Baseline, n subjects (Week 20): 25
- Bilirubin >10% increase from Baseline, % of subjects (Week 20): (21.1%)
- Bilirubin >10% increase from Baseline, n subjects (Week 20): 8
- Bilirubin Within 10% of Baseline, % of subjects (Week 20): (13.2%)
- Bilirubin Within 10% of Baseline, n subjects (Week 20): 5
- ALKALINE PHOSPHATASE Change from Baseline, Median (Week 20): −25.5 U/L
- ALT Change from Baseline, Mean (Week 20): −10.3 U/L
- ALT Change from Baseline, Median (Week 20): −6.5 U/L
- ALT Observed Value, Mean (Week 20): 34.8 U/L
- ALT Observed Value, Median (Week 20): 28.5 U/L
- AST Change from Baseline, Mean (Week 20): −4.2 U/L
- AST Change from Baseline, Median (Week 20): −2.5 U/L
- AST Observed Value, Mean (Week 20): 28.4 U/L
- AST Observed Value, Median (Week 20): 24.5 U/L
- Albumin Change from Baseline, Mean (Week 20): -0.6 g/L
- Albumin Change from Baseline, Median (Week 20): -1 g/L
- Albumin Observed Value, Mean (Week 20): 41.8 g/L
- Albumin Observed Value, Median (Week 20): 43 g/L
- Alkaline Phosphatase Change from Baseline, Mean (Week 20): −28.6 U/L
- Alkaline Phosphatase Observed Value, Mean (Week 20): 109.8 U/L
- Alkaline Phosphatase Observed Value, Median (Week 20): 94.5 U/L
- Bilirubin Change from Baseline, Mean (Week 20): -2.76 µmol/L
- Bilirubin Change from Baseline, Median (Week 20): -1.7 µmol/L
- Bilirubin Observed Value, Mean (Week 20): 9.88 µmol/L
- Bilirubin Observed Value, Median (Week 20): 7.85 µmol/L
- Gamma Glutamyl Transferase Change from Baseline, Mean (Week 20): −9.6 U/L
- Gamma Glutamyl Transferase Change from Baseline, Median (Week 20): −8 U/L
- Gamma Glutamyl Transferase Observed Value, Mean (Week 20): 70.1 U/L
- Gamma Glutamyl Transferase Observed Value, Median (Week 20): 47.5 U/L
- ALT >10% decrease from Baseline, % of subjects (Week 24): (63.2%)
- ALT >10% decrease from Baseline, n subjects (Week 24): 24
- ALT >10% increase from Baseline, % of subjects (Week 24): (10.5%)
- ALT >10% increase from Baseline, n subjects (Week 24): 4
- ALT Within 10% of Baseline, % of subjects (Week 24): (26.3%)
- ALT Within 10% of Baseline, n subjects (Week 24): 10
- AST >10% decrease from Baseline, % of subjects (Week 24): (63.2%)
- AST >10% decrease from Baseline, n subjects (Week 24): 24
- AST >10% increase from Baseline, % of subjects (Week 24): (15.8%)
- AST >10% increase from Baseline, n subjects (Week 24): 6
- AST Within 10% of Baseline, % of subjects (Week 24): (21.1%)
- AST Within 10% of Baseline, n subjects (Week 24): 8
- Albumin >10% decrease from Baseline, % of subjects (Week 24): (5.3%)
- Albumin >10% decrease from Baseline, n subjects (Week 24): 2
- Albumin >10% increase from Baseline, n subjects (Week 24): 0
- Albumin Within 10% of Baseline, % of subjects (Week 24): (94.7%)
- Albumin Within 10% of Baseline, n subjects (Week 24): 36
- Alkaline Phosphatase >10% decrease from Baseline, % of subjects (Week 24): (60.5%)
- Alkaline Phosphatase >10% decrease from Baseline, n subjects (Week 24): 23
- Alkaline Phosphatase >10% increase from Baseline, % of subjects (Week 24): (15.8%)
- Alkaline Phosphatase >10% increase from Baseline, n subjects (Week 24): 6
- Alkaline Phosphatase Within 10% of Baseline, % of subjects (Week 24): (23.7%)
- Alkaline Phosphatase Within 10% of Baseline, n subjects (Week 24): 9
- Bilirubin >10% decrease from Baseline, % of subjects (Week 24): (68.4%)
- Bilirubin >10% decrease from Baseline, n subjects (Week 24): 26
- Bilirubin >10% increase from Baseline, % of subjects (Week 24): (15.8%)
- Bilirubin >10% increase from Baseline, n subjects (Week 24): 6
- Bilirubin Within 10% of Baseline, % of subjects (Week 24): (15.8%)
- Bilirubin Within 10% of Baseline, n subjects (Week 24): 6
- ALKALINE PHOSPHATASE Change from Baseline, Median (Week 24): −24.5 U/L
- ALT Change from Baseline, Mean (Week 24): −13.5 U/L
- ALT Change from Baseline, Median (Week 24): −7.5 U/L
- ALT Observed Value, Mean (Week 24): 28.5 U/L
- ALT Observed Value, Median (Week 24): 23.5 U/L
- AST Change from Baseline, Mean (Week 24): −5.8 U/L
- AST Change from Baseline, Median (Week 24): −5 U/L
- AST Observed Value, Mean (Week 24): 25.8 U/L
- AST Observed Value, Median (Week 24): 23 U/L
- Albumin Change from Baseline, Mean (Week 24): -0.4 g/L
- Albumin Change from Baseline, Median (Week 24): 0 g/L
- Albumin Observed Value, Mean (Week 24): 41.9 g/L
- Albumin Observed Value, Median (Week 24): 42 g/L
- Alkaline Phosphatase Change from Baseline, Mean (Week 24): −29.2 U/L
- Alkaline Phosphatase Observed Value, Mean (Week 24): 106.2 U/L
- Alkaline Phosphatase Observed Value, Median (Week 24): 88 U/L
- Bilirubin Change from Baseline, Mean (Week 24): -3.68 µmol/L
- Bilirubin Change from Baseline, Median (Week 24): -2.35 µmol/L
- Bilirubin Observed Value, Mean (Week 24): 8.64 µmol/L
- Bilirubin Observed Value, Median (Week 24): 6.8 µmol/L
- Gamma Glutamyl Transferase Change from Baseline, Mean (Week 24): −13.6 U/L
- Gamma Glutamyl Transferase Change from Baseline, Median (Week 24): −6 U/L
- Gamma Glutamyl Transferase Observed Value, Mean (Week 24): 60.4 U/L
- Gamma Glutamyl Transferase Observed Value, Median (Week 24): 40.5 U/L

From patent publication US20130072430A1, “METHODS FOR TREATMENT OR PROPHYLAXIS OF KIDNEY OR LIVER DYSFUNCTION” (NPS PHARMACEUTICALS, INC., priority 2010, published 2013)
